Experiments:
Assay type in all cases: in vivo
[1] = tested on: barnyardgrass (Echinochloa crus-galli); assay: Test B flooded paddy test plant response
How it was run: (§1)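 Rice, umbrella sedge, ducksalad and barnyardgrass at 2-leaf stage; pots flooded to 3 cm, compounds applied into paddy water, depth held throughout. Greenhouse 13 to 15 days, then visual rating vs untreated controls on 0–100 scale (0 no effect, 100 complete control); dash means no test result.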

rice (Oryza sativa) = assay: Test B flooded paddy test plant response
How it was run: as §1

[2] = tested on: common (oilseed) sunflower (Helianthus annuus); assay: Test B pre-/postemergence plant response; settings: Preemergence
How it was run: (§2)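 Visual scoring from 0 (no effect) to 100 (complete control) against untreated controls was done 13 to 15 days after greenhouse treatment. Chemicals were formulated in a surfactant-containing non-phytotoxic solvent and applied to soil preemergence or to 1- to 4-leaf (2-18 cm) plants postemergence.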

[3] = tested on: large crabgrass (Digitaria sanguinalis); assay: Test B pre-/postemergence plant response
How it was run: as §2

[4] = tested on: johnsongrass (Sorghum halepense); assay: Test B pre-/postemergence plant response
How it was run: as §2

[5] = tested on: pigweed (Amaranthus retroflexus); assay: Test B pre-/postemergence plant response
How it was run: as §2

[6] = tested on: morningglory (Ipomoea coccinea); assay: Test B pre-/postemergence plant response
How it was run: as §2

[7] = tested on: common ragweed (Ambrosia elation); assay: Test B pre-/postemergence plant response
How it was run: as §2

wild oat (Avena fatua) = assay: Test B pre-/postemergence plant response
How it was run: as §2

[8] = tested on: Italian ryegrass (Lolium multiflorum); assay: Test B pre-/postemergence plant response
How it was run: as §2

[9] = tested on: eastern black (E.B.) nightshade (Solanum ptycanthum); assay: Test B pre-/postemergence plant response; settings: Preemergence
How it was run: as §2

[10] = tested on: downy bromegrass (Bromus tectorum); assay: Test B pre-/postemergence plant response
How it was run: as §2

[11] = tested on: blackgrass (Alopecurus myosuroides); assay: Test B pre-/postemergence plant response
How it was run: as §2

[12] = tested on: catchweed bedstraw (Galium aparine); assay: Test B pre-/postemergence plant response; settings: Preemergence
How it was run: as §2

[13] = Flood (flooded paddy test), 62 g ai/ha, scale 0 to 100, 0 no effect, 100 complete control
[14] = Flood (flooded paddy test), 125 g ai/ha, scale 0 to 100, 0 no effect, 100 complete control
[15] = Flood (flooded paddy test), 250 g ai/ha, scale 0 to 100, 0 no effect, 100 complete control
[16] = Flood, 31 g ai/ha, scale 0 to 100
[17] = 8 g ai/ha, scale 0 to 100 (0 no effect, 100 complete control)
[18] = 31 g ai/ha, scale 0 to 100 (0 no effect, 100 complete control)
[19] = 62 g ai/ha, 0 to 100 scale, 0 no effect, 100 complete control
[20] = 8 g ai/ha, postemergence, 0-100 scale
[21] = Postemergence, 16 g ai/ha, scale 0 to 100
[22] = Postemergence, 31 g ai/ha, scale 0 to 100
[23] = Postemergence, 62 g ai/ha, scale 0 to 100, 0 no effect, 100 complete control
[24] = Preemergence, 8 g ai/ha, scale 0 to 100 (0 no effect, 100 complete control)
[25] = Preemergence, 31 g ai/ha, scale 0 to 100 (0 no effect, 100 complete control)
[26] = Preemergence, 62 g ai/ha, 0 to 100 scale, 0 no effect, 100 complete control
[27] = Preemergence, 16 g ai/ha, scale 0 to 100
[28] = 16 g ai/ha, postemergence, 0-100 scale

Cc1nn(C)c(=O)c(-n2nc(-c3ccc(Br)cc3)cc2C)c1O [Compound 81]
95: Johnsongrass plant response rating [4, 28] | Plant response rating, Johnsongrass [4, 25] | Plant response rating, Johnsongrass [4, 26] | Oat, Wild plant response rating (wild oat (Avena fatua); [28])
0: Plant response rating, Barnyardgrass [1, 13] | Plant response rating, Barnyardgrass [1, 14] | Plant response rating, Barnyardgrass [1, 15] | Plant response rating, Barnyardgrass [1, 16] | Plant response rating, Rice (rice (Oryza sativa); [13]) | Plant response rating, Rice (rice (Oryza sativa); [14]) | Plant response rating, Rice (rice (Oryza sativa); [15]) | Plant response rating, Rice (rice (Oryza sativa); [16]) | Sunflower plant response rating [2, 17] | Sunflower plant response rating ([2]; 16 g ai/ha, scale 0 to 100) | Pigweed plant response rating [5, 20] | Pigweed plant response rating [5, 28] | Plant response rating, Pigweed [5, 22] | Plant response rating, Pigweed [5, 23] | Pigweed plant response rating [5, 24] | Plant response rating, Pigweed [5, 25] | Pigweed plant response rating [5, 27] | Morningglory plant response rating [6, 20] | Morningglory plant response rating [6, 28] | Plant response rating, Morningglory [6, 22] | Plant response rating, Morningglory [6, 23] | Morningglory plant response rating [6, 24] | Plant response rating, Morningglory [6, 25] | Morningglory plant response rating [6, 27] | Ragweed plant response rating [7, 20] | Ragweed plant response rating [7, 28] | Plant response rating, Ragweed [7, 22] | Ragweed plant response rating [7, 24] | Plant response rating, Ragweed [7, 25] | Plant response rating, Ragweed [7, 26] | Ragweed plant response rating [7, 27] | Nightshade, E. B. plant response rating [9, 17] | Plant response rating, Nightshade, E. B. [9, 18] | Nightshade, E. B. plant response rating ([9]; 16 g ai/ha, scale 0 to 100) | Bromegrass, Downy plant response rating [10, 20] | Galium plant response rating [12, 17] | Plant response rating, Galium [12, 18] | Plant response rating, Galium [12, 19] | Galium plant response rating ([12]; 16 g ai/ha, scale 0 to 100)
85: Plant response rating, Oat, Wild (wild oat (Avena fatua); [26]) | Ryegrass, Italian plant response rating [8, 20] | Plant response rating, Bromegrass, Downy [10, 26] | Blackgrass plant response rating [11, 20] | Blackgrass plant response rating [11, 27]
100: Plant response rating, Crabgrass, Large [3, 22] | Plant response rating, Crabgrass, Large [3, 23] | Plant response rating, Crabgrass, Large [3, 25] | Plant response rating, Crabgrass, Large [3, 26] | Plant response rating, Johnsongrass [4, 23] | Plant response rating, Morningglory [6, 26] | Plant response rating, Oat, Wild (wild oat (Avena fatua); [22]) | Plant response rating, Oat, Wild (wild oat (Avena fatua); [23]) | Plant response rating, Ryegrass, Italian [8, 22] | Plant response rating, Ryegrass, Italian [8, 23] | Plant response rating, Ryegrass, Italian [8, 25] | Plant response rating, Ryegrass, Italian [8, 26] | Ryegrass, Italian plant response rating [8, 27] | Plant response rating, Blackgrass [11, 23] | Plant response rating, Blackgrass [11, 25] | Plant response rating, Blackgrass [11, 26]
80: Johnsongrass plant response rating [4, 27] | Oat, Wild plant response rating (wild oat (Avena fatua); [20]) | Blackgrass plant response rating [11, 24]
70: Plant response rating, Oat, Wild (wild oat (Avena fatua); [25]) | Ryegrass, Italian plant response rating [8, 24] | Plant response rating, Bromegrass, Downy [10, 23] | Plant response rating, Bromegrass, Downy [10, 25] | Bromegrass, Downy plant response rating [10, 27]
50: Crabgrass, Large plant response rating [3, 20] | Plant response rating, Nightshade, E. B. [9, 19] | Plant response rating, Bromegrass, Downy [10, 22]
98: Plant response rating, Crabgrass, Large [3, 21] | Crabgrass, Large plant response rating [3, 27] | Plant response rating, Blackgrass [11, 22]
20: Plant response rating, Sunflower [2, 19] | Plant response rating, Ragweed [7, 23] | Bromegrass, Downy plant response rating [10, 24]
75: Johnsongrass plant response rating [4, 20]
90: Ryegrass, Italian plant response rating [8, 28] | Plant response rating, Blackgrass [11, 21]
60: Johnsongrass plant response rating [4, 24] | Oat, Wild plant response rating (wild oat (Avena fatua); [27])
45: Oat, Wild plant response rating (wild oat (Avena fatua); [24]) | Plant response rating, Bromegrass, Downy [10, 21]
55: Plant response rating, Pigweed [5, 26]
65: Crabgrass, Large plant response rating [3, 24]
15: Plant response rating, Sunflower [2, 18]
